From patent publication US6821967B2, “Substituted piperazine derivatives, the preparation thereof and their use as medicaments” (Boehringer Ingelheim Pharma KG, priority 1999, dated 2004)

SMILES | melting point [°C]
CC1CN(CCCCC2(C(=O)NCC(F)(F)F)c3ccccc3-c3ccccc32)CCN1c1ccc2ccccc2n1 (stereo not shown) [Example 40, 9-{4-[3-methyl-4-quinolin-2-yl-piperazin-1-yl]-butyl}-9H-fluorene-9-carboxylic acid-(2,2,2-trifluoro-ethyl)-amide] | 50
C[C@@H]1CN(c2nc3ccccc3s2)C[C@H](C)N1CCCCC1(C(=O)NCC(F)(F)F)c2ccccc2Oc2ccccc21 [Example 110, 9-[4-(4-benzothiazol-2-yl-cis-2,6-dimethyl-piperazin-1-yl)-butyl]-9H-xanthene-9-carboxylic acid-(2,2,2-trifluoro-ethyl)-amide] | 157
O=C(NCc1ccncc1)C1(CCCCN2CCN(c3ccc4ccccc4n3)CC2)c2ccccc2-c2ccccc21 [Example 88, 9-[4-(4-quinolin-2-yl-piperazin-1-yl)-butyl]-9H-fluorene-9-carboxylic acid-(pyridin-4-ylmethyl)-amide] | 166 to 168
Cn1c(N2CCN(CCCCC3(C(=O)NCc4ccc(F)cc4)c4ccccc4-c4ccccc43)CC2)nc2ccccc21 [Example 60, 9-{4-[4-(1-methyl-1H-benzimidazol-2-yl)-piperazin-1-yl]-butyl}-9H-fluorene-9-carboxylic acid-4-fluoro-benzylamide] | 55
COc1ccc(CNC(=O)C2(CCCCN3CCN(c4ncc5ccccc5n4)CC3)c3ccccc3-c3ccccc32)cc1 [Example 74, 9-[4-(4-quinazolin-2-yl-piperazin-1-yl)-butyl]-9H-fluorene-9-carboxylic acid-4-methoxy-benzylamide] | 143 to 144
C[C@H]1CN(c2ccc3ccccc3n2)CCN1CCCCC1(C(=O)NCc2ccc(F)cc2)c2ccccc2-c2ccccc21 [Example 64, 9-{4-[(S)-2-methyl-4-quinolin-2-yl-piperazin-1-yl]-butyl}-9H-fluorene-9-carboxylic acid-4-fluoro-benzylamide] | 124
O=C(N1CCOCC1)C1(CCCCN2CCN(c3ccc4ccccc4n3)CC2)c2ccccc2Oc2ccccc21 [Example 120, 1-morpholin-4-yl-1-{9-[4-(4-quinolin-2-yl-piperazin-1-yl)-butyl]-9H-xanthene-9-yl}-methanone] | 48 to 58
O=C(NCC(F)(F)F)C1(CCCCN2CCN(c3ccc4ccc(Cl)cc4n3)CC2)c2ccccc2-c2ccccc21 [Example 26, 9-{4-[4-(7-chloro-quinolin-2-yl)-piperazin-1-yl]-butyl}-9H-fluorene-9-carboxylic acid-(2,2,2-trifluoro-ethyl)-amide] | 146 to 148
C[C@@H]1CN(c2ccc3ccccc3n2)CCN1CCCCC1(C(=O)NCC(F)(F)F)c2ccccc2-c2ccccc21 [Example 39, 9-{4-[(R)-2-methyl-4-quinolin-2-yl-piperazin-1-yl]-butyl}-9H-fluorene-9-carboxylic acid-(2,2,2-trifluoro-ethyl)-amide] | 102
O=C(O)CCNC(=O)C1(CCCCN2CCN(c3ccc4ccccc4n3)CC2)c2ccccc2-c2ccccc21 [Example 96, 9-[4-(4-quinolin-2-yl-piperazin-1-yl)-butyl]-9H-fluorene-9-carboxylic acid-(2-carboxy-ethyl)-amide] | 98 to 100
C[C@@H]1CN(c2ncc3ccccc3n2)C[C@H](C)N1CCCCC1(C(=O)NCC(F)(F)F)c2ccccc2-c2ccccc21 [Example 47, 9-[4-(cis-2,6-dimethyl-4-quinazolin-2-yl-piperazin-1-yl)-butyl]-9H-fluorene-9-carboxylic acid-(2,2,2-trifluoro-ethyl)-amide] | 174
O=C(NCC(F)(F)F)C1(CCCCN2CCN(c3ccc4cccc(Cl)c4n3)CC2)c2ccccc2-c2ccccc21 [Example 29, 9-{4-[4-(8-chloro-quinolin-2-yl)-piperazin-1-yl]-butyl}-9H-fluorene-9-carboxylic acid-(2,2,2-trifluoro-ethyl)-amide] | 121
O=C(NCc1ccc(F)cc1)C1(CCCCN2CCN(c3ccc4ccccc4n3)CC2)c2ccccc2-c2ccccc21 [Example 53, 9-[4-(4-quinolin-2-yl-piperazin-1-yl)-butyl]-9H-fluorene-9-carboxylic acid-4-fluoro-benzylamide] | 58
COc1ccc(CNC(=O)C2(CCCCN3CCN(c4ccc5ccccc5n4)CC3)c3ccccc3-c3ccccc32)c(OC)c1 [Example 82, 9-[4-(4-quinolin-2-yl-piperazin-1-yl)-butyl]-9H-fluorene-9-carboxylic acid-2,4-dimethoxy-benzylamide] | 44
Cn1c(N2CCN(CCCCC3(C(=O)NCc4ccc(F)cc4)c4ccccc4-c4ccccc43)CC2)nc2ccc(F)cc21 [Example 62, 9-{4-[4-(6-fluoro-1-methyl-1H-benzimidazol-2-yl)-piperazin-1-yl]-butyl}-9H-fluorene-9-carboxylic acid-4-fluoro-benzylamide] | 43
C[C@@H]1CN(c2nc3ccccc3s2)C[C@H](C)N1CCCCC1(C(=O)NCC(F)(F)F)c2ccccc2-c2ccccc21 [Example 45, 9-[4-(4-benzothiazole-2-yl-cis-2,6-dimethyl-piperazin-1-yl)-butyl]-9H-fluorene-9-carboxylic acid-(2,2,2-trifluoro-ethyl)-amide] | 163 to 165
